Data reported in paper PMC3938723, “Learning from Host-Defense Peptides: Cationic, Amphipathic Peptoids with Potent Anticancer Activity” (PLoS ONE, 2014).
Non-standard residues stand in square brackets, D forms with d. Residues, ends and D or L forms follow the SMILES beside them. Nspe = C[C@H](NCC(=O)O)c1ccccc1; Nlys = NCCCCNCC(=O)O

Key:
[1] = Analytical RP-HPLC elution as relative measure of molecular hydrophobicity; format: physicochemical; settings: percentage of acetonitrile at elution, analytic RP-HPLC, C18 column, linear water/acetonitrile (0.1% trifluoroacetic acid) gradient 5%-95% acetonitrile over 30 min
Excerpt: Peptoids were synthesized using an ABI 433A peptide synthesizer (Applied Biosystems, Inc.) on Rink amide MBHA resin (EMD Biosciences, Gibbstown, NJ) using the submonomer protocol, [24]. Briefly, the amine on the nascent chain is bromoacetylated or chloroacetylated followed by SN2 displacement of bromide or chloride by a primary amine to form the side chain. Resin-bound peptoids were then exposed to a mixture of trifluoroacetic acid (TFA): triisopropylsilane: water (95∶2.5∶2.5, volume ratio) for 10 minutes to cleave peptoids from the resin. Crude peptoids were purified by reversed-phase high performance liquid chromatography (RP-HPLC) (Waters Corporation) using a C18 column and a linear acetonitrile/water gradient. A final purity >95% as measured by analytical RP-HPLC (Waters Corporation) was achieved, and the identity of each peptoid was confirmed using electrospray ionization mass spectrometry (ESI/MS). Pexiganan was synthesized by standard Fmoc chemistry on an ABI 433A peptide synthesizer ([…]). Unless indicated otherwise, all reagents were purchased from Sigma Aldrich (St. Louis, MO). Among the submonomers used, Nspe was derived from (S)-N-(1-phenylethyl)amine; Npm from benzylamine ([…]); NHis from histamine (2-[4-imidazolyl]ethylamine); NLeu from isobutylamine; NLys from N-tert-butoxycarbonyl-1,4-butanediamine (CNH Technologies, MA). Guanidinylation of NLys was carried out according to the reported procedure. When NHis was used in the peptoid sequence, chloroacetic acid was used. 5(6)-Carboxyfluorescein was used to label the N-terminus of peptoid 1 [28].
Peptoids were utilized herein as a peptidomimetic scaffold to capture the cationic, amphipathic nature of anticancer peptides, as well as to improve molecular stability and to increase chemical diversity. The design of anticancer peptoids were derived from previous antimicrobial peptoids and were further optimized hererin to improve the activity and selectivity of peptoids against anionic membranes, [24], [25]. […] Several novel variants were designed based on peptoid 1 but with different charges, amphipathicity, length, and helicity to change their activity or selectivity. The sequences of these variants, the solvent composition at RP-HPLC elution as a relative measure of molecular hydrophobicity, molecular net charges and their charge-to-length ratio are summarized in Table 1. […] Pexiganan, a clinically-relevant peptide analog of magainin 2 which was developed for topical treatment for diabetic foot infection, and LL-37, the only known human cathelicidin which is a non-selective antimicrobial peptide, were also tested for comparison.

[2] = system: MCF-7 (breast cancer); experiment: MTS cell viability assay, MCF-7; format: cell-based; settings: 72 h
Experimental: (§1) MCF-7, MCF-7/TxT50 and OVCAR-3 (available in ATCC) were kindly provided by Professor Branimir Sikic's lab at Stanford University, and were cultured in McCoy's 5A media (GIBCO) with 10% FBS and antibiotics. Primary dermal fibroblasts were gifts from Lifeline Cell Technology and were cultured <6 passages according to the protocol Lifeline provides. All the cells were cultured in cell incubators (Thermo Scientific) at 37°C with 5% CO2.
(§2) This assay is a colorimetric method for determining the number of viable cells in proliferation. Aliquots of 100 µl media containing 1×10^4 cells were distributed into each well of a 96-well plate (BD Falcon). The following day, when cell density reaches about ∼40% confluency, the cell media were removed and replaced with serial dilutions of peptoid stocks in culturing media. For peptoid dilutions, peptoid stocks were initially diluted in media at 100 µM and then diluted by half in series using a multichannel pipette, and maintained in 100 µl media for each concentration with triple repeats. After peptoid solutions were transferred onto cells in 96-well plates, cells were incubated at 37°C for certain time periods. Then 20 µl of the CellTiter 96 Aqueous Non-Radioactive cell proliferation assay (Promega) reagent which contains a tetrazolium compound, [3-(4,5-dimethylthiazol-2-yl)-5-(3-carboxymethoxyphenyl)-2-(4-sulfophenyl)-2H-tetrazolium, inner salt; MTS(a)], was added to each well and cells were further incubated for 2 h to metabolize. The absorbance of formazan products were measured at 490 nm in a microplate reader (Molecular Devices). Percentage of cell viability = (A -A testblank)/(A control -A blank)×100, where A is the absorbance of the test well and A control the average absorbance of wells with cells not treated with peptoids. A testblank (media, MTS, and diluted peptoids) and A blank (media and MTS) were background absorbances measured in the absence of cells.
(§3) The activity and selectivity of these peptoids against cancer cells were evaluated in vitro. Their cytotoxicity was tested in three cancer cell lines, MCF-7 (human breast cancer), LNCaP (human prostate cancer), and OVCAR-3 (human ovarian cancer). To estimate the selectivity of these peptoids in vitro, hemolytic activities of some peptoids were cited from previously published work (Table 2 **column), and the MRC-5 cell line (human fibroblasts derived from fetal lung tissues) and primary dermal fibroblasts were also tested as normal cell controls. Briefly, cells were treated with peptoids diluted in culturing media for certain time periods, and then cell viability was measured via MTS assays.

[3] = system: OVCAR3 (ovarian cancer); experiment: MTS cell viability assay, OVCAR3; format: cell-based; settings: 72 h
Experimental: as §1, §2, §3

[4] = system: MRC-5 (fetal lung fibroblast); experiment: MTS cell viability assay, MRC-5; format: cell-based; settings: 72 h
Experimental: as §1, §2, §3

[5] = system: Primary dermal fibroblast; experiment: MTS cell viability assay, primary dermal fibroblasts; format: cell-based; settings: 72 h
Experimental: as §1, §2, §3

[6] = system: mice; experiment: Acute toxicity observation in xenograft mice; format: in vivo; settings: intratumor injections ~1 mg/kg three times a week, xenograft NSG mice
Experimental: 80,000 cells from a dissociated second generation metastatic breast cancer tumor were suspended in Medium 199 containing 25% Matrix Matrigel (Becton Dickinson 354248) and injected into the mammary fat pad of 4–8 week old NOD.Cg-Prkdc^scid Il2rg^tm1Wjl/SzJ (NSG) mice. After two weeks, 100 µl PBS containing 110 µM peptoid 1 or control peptide was injected into the mammary fat pad three times a week, roughly at a dose of 1 mg/kg. Tumor volumes were determined using direct caliper measurements following […] of treatment.
Human breast cancer cells were implanted in the mammary fat pad of immunocompromised mice.

C[C@@H](c1ccccc1)N(CC(N)=O)C(=O)CN(C(=O)CN(CCCCN)C(=O)CN(C(=O)CN(C(=O)CN(CCCCN)C(=O)CN(C(=O)CN(C(=O)CN(CCCCN)C(=O)CN(C(=O)CN(C(=O)CNCCCCN)[C@@H](C)c1ccccc1)[C@@H](C)c1ccccc1)[C@@H](C)c1ccccc1)[C@@H](C)c1ccccc1)[C@@H](C)c1ccccc1)[C@@H](C)c1ccccc1)[C@@H](C)c1ccccc1 [Peptoid 1, H-(NLys-Nspe-Nspe)4-NH2] (H-[Nlys][Nspe][Nspe][Nlys][Nspe][Nspe][Nlys][Nspe][Nspe][Nlys][Nspe][Nspe]-NH2)
HPLC elution [1]: 65.1 % ACN | LC50 MCF-7 (breast cancer) [2]: 5 µM | LC50 OVCAR3 (ovarian cancer) [3]: 6 µM | LC50 MRC-5 (fetal lung fibroblast) [4]: 8 µM | LC50 Primary dermal fibroblast [5]: 8 µM | acute side effects in mice [6]: without causing any obvious acute side effects
